In US12522595B2, “Bicyclic ether O-glycoprotein-2-acetamido-2-deoxy-3-D-glucopyranosidase inhibitors” (BIOGEN MA INC., priority 2019, dated 2026):

Molecular target: T1, Recombinant full length human OGA enzyme (Homo sapiens, UniProt O60502)
T1 construct: Recombinant full length human OGA enzyme was purchased from Origene; purchased Origene
T1 sequence (O60502 1-916): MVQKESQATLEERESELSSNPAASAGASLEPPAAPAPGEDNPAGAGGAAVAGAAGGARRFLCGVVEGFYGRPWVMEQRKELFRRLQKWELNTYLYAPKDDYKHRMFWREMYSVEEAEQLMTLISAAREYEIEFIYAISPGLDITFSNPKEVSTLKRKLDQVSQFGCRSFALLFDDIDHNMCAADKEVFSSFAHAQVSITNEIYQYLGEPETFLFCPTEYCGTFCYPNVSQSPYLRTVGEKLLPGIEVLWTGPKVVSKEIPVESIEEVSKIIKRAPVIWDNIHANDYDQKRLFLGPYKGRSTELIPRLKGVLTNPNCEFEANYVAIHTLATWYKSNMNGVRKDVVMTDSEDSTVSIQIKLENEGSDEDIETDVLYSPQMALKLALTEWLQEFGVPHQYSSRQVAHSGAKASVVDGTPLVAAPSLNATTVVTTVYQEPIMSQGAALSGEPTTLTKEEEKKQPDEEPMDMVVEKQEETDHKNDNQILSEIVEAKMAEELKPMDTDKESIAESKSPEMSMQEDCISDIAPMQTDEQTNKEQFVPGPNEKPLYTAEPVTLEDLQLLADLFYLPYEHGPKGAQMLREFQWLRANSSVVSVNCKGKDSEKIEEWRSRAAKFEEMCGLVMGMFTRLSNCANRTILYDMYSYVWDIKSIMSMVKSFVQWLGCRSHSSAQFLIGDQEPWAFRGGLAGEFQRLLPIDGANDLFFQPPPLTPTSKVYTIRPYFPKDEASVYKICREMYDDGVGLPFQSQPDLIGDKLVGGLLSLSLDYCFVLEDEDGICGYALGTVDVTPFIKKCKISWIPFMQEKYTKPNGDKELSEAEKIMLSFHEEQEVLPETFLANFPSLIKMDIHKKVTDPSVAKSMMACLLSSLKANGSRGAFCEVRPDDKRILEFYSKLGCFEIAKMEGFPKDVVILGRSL
Assay: OGA enzyme inhibition biochemical assay
Conditions: 1 nM OGA, 100 μM 4-MUGlcNAc (Km), pH 6.4, 90 minutes at room temperature, 10-point dose-response from 20 μM
Outline: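 1 nM OGA with 100 μM 4-MUGlcNAc (Km) in McIlvaine buffer pH 6.4, 0.01% BSA, 90 min at room temperature; quenched with 3M glycine pH 10, fluorescence Ex 355/Em 460 nm. 10-point, 4-fold dilutions from 20 μM; 4-parameter variable-slope fit.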

| SMILES | IC50 [nM] |
| --- | --- |
| CC(=O)Nc1nc(F)c(CN2C[C@H](Oc3ncnc4cccc(F)c34)C[C@@H]2C)s1 [Example 124, N-(4-fluoro-5-(((2S,4R)-4-((5-fluoroquinazolin-4-yl)oxy)-2-methylpyrrolidin-1-yl)methyl)thiazol-2-yl)acetamide] | < 1 |
| COc1cc2c(O[C@@H]3C[C@H](C)N(Cc4sc(NC(C)=O)nc4F)C3)ncnc2cc1F [Example 125, N-(4-fluoro-5-(((2S,4R)-4-((7-fluoro-6-methoxyquinazolin-4-yl)oxy)-2-methylpyrrolidin-1-yl)methyl)thiazol-2-yl)acetamide] | 1.8 |
| CC(=O)Nc1nc(F)c(CN2C[C@H](Oc3ccn4nccc4c3)C[C@@H]2C)s1 [Example 49, N-(4-fluoro-5-(((2S,4R)-2-methyl-4-(pyrazolo[1,5-a]pyridin-5-yloxy)pyrrolidin-1-yl)methyl)thiazol-2-yl)acetamide] | < 1 |
| CC(=O)Nc1nc(F)c(CN2C[C@H](Oc3cnc4nc(C)oc4c3)C[C@@H]2C)s1 [Example 169, N-(4-Fluoro-5-(((2S,4R)-2-methyl-4-((2-methyloxazolo[4,5-b]pyridin-6-yl)oxy)pyrrolidin-1-yl)methyl)thiazol-2-yl)acetamide] | < 1 |
| CC(=O)Nc1ncc(CN2C[C@H](Oc3cccc4nn(C)cc34)C[C@@H]2C)s1 [Example 83, N-(5-(((2S,4R)-2-methyl-4-((2-methyl-2H-indazol-4-yl)oxy)pyrrolidin-1-yl)methyl)thiazol-2-yl)acetamide] | 1.1 |
| CC(=O)Nc1nc(F)c(CN2C[C@H](Oc3cccc4nnnn34)C[C@@H]2C)s1 [Example 147, N-(4-fluoro-5-(((2S,4R)-2-methyl-4-(tetrazolo[1,5-a]pyridin-5-yloxy)pyrrolidin-1-yl)methyl)thiazol-2-yl)acetamide] | < 1 |
| CC(=O)Nc1ncc(CN2C[C@H](Oc3nccc4occc34)C[C@@H]2C)s1 [Example 22, N-(5-(((2S,4R)-4-(furo[3,2-c]pyridin-4-yloxy)-2-methylpyrrolidin-1-yl)methyl)thiazol-2-yl)acetamide] | 2.1 |
| CC(=O)Nc1ncc(CN2C[C@H](Oc3cccc4nccn34)C[C@@H]2C)s1 [Example 63, N-(5-(((2S,4R)-4-(imidazo[1,2-a]pyridin-5-yloxy)-2-methylpyrrolidin-1-yl)methyl)thiazol-2-yl)acetamide] | < 1 |
| CC(=O)Nc1ncc(CN2C[C@H](Oc3cccc4cn(C)nc34)C[C@@H]2C)s1 [Example 159, N-(5-(((2S,4R)-2-methyl-4-((2-methyl-2H-indazol-7-yl)oxy)pyrrolidin-1-yl)methyl)thiazol-2-yl)acetamide] | < 1 |
| CC(=O)Nc1ncc(CN2C[C@H](Oc3ccnc4ccccc34)C[C@@H]2C)s1 [Example 19, N-(5-(((2S,4R)-2-methyl-4-(quinolin-4-yloxy)pyrrolidin-1-yl)methyl)thiazol-2-yl)acetamide] | 1.3 |
| CC(=O)Nc1nc(F)c(CN2C[C@H](Oc3ccc4nccnc4n3)C[C@@H]2C)s1 [Example 117, N-(4-fluoro-5-(((2S,4R)-2-methyl-4-(pyrido[2,3-b]pyrazin-6-yloxy)pyrrolidin-1-yl)methyl)thiazol-2-yl)acetamide] | < 1 |
| CC(=O)Nc1ncc(CN2C[C@H](Oc3cc4cn(C)nc4cn3)C[C@@H]2C)s1 [Example 87, N-(5-(((2S,4R)-2-methyl-4-((2-methyl-2H-pyrazolo[3,4-c]pyridin-5-yl)oxy)pyrrolidin-1-yl)methyl)thiazol-2-yl)acetamide] | < 1 |
| CCc1cc2c(O[C@@H]3C[C@H](C)N(Cc4cnc(NC(C)=O)s4)C3)nccc2o1 [Example 15, N-(5-(((2S,4R)-4-((2-ethylfuro[3,2-c]pyridin-4-yl)oxy)-2-methylpyrrolidin-1-yl)methyl)thiazol-2-yl)acetamide] | < 1 |
| CC(=O)Nc1ncc(CN2C[C@H](Oc3nccn4ccnc34)C[C@@H]2C)s1 [Example 95, N-(5-(((2S,4R)-4-(imidazo[1,2-a]pyrazin-8-yloxy)-2-methylpyrrolidin-1-yl)methyl)thiazol-2-yl)acetamide] | 5.3 |
| CC(=O)Nc1nc(F)c(CN2C[C@H](Oc3ccnc4ccnn34)C[C@@H]2C)s1 [Example 104, N-(4-fluoro-5-(((2S,4R)-2-methyl-4-(pyrazolo[1,5-a]pyrimidin-7-yloxy)pyrrolidin-1-yl)methyl)thiazol-2-yl)acetamide] | 3.8 |
| CC(=O)Nc1ncc(CN2C[C@H](Oc3ncc4c(n3)CCCC4)C[C@@H]2C)s1 [Example 10, N-(5-(((2S,4R)-2-methyl-4-((5,6,7,8-tetrahydroquinazolin-2-yl)oxy)pyrrolidin-1-yl)methyl)thiazol-2-yl)acetamide] | < 1 |
| CC(=O)Nc1ncc(CN2C[C@H](Oc3ncnc4cc(F)c(F)cc34)C[C@@H]2C)s1 [Example 35, N-(5-(((2S,4R)-4-((6,7-difluoroquinazolin-4-yl)oxy)-2-methylpyrrolidin-1-yl)methyl)thiazol-2-yl)acetamide] | 110 |
| CC(=O)Nc1ncc(CN2C[C@H](Oc3ccc4ccn(C)c4n3)C[C@@H]2C)s1 [Example 162, N-(5-(((2S,4R)-2-methyl-4-((1-methyl-1H-pyrrolo[2,3-b]pyridin-6-yl)oxy)pyrrolidin-1-yl)methyl)thiazol-2-yl)acetamide] | < 1 |
| CC(=O)Nc1ncc(CN2C[C@H](Oc3ccc4nn(C)cc4c3)C[C@@H]2C)s1 [Example 44, N-(5-(((2S,4R)-2-methyl-4-((2-methyl-2H-indazol-5-yl)oxy)pyrrolidin-1-yl)methyl)thiazol-2-yl)acetamide] | < 1 |
| CC(=O)Nc1nc(F)c(CN2C[C@H](Oc3nccc4occc34)C[C@@H]2C)s1 [Example 70, N-(4-fluoro-5-(((2S,4R)-4-(furo[3,2-c]pyridin-4-yloxy)-2-methylpyrrolidin-1-yl)methyl)thiazol-2-yl)acetamide] | 1.2 |
| CC(=O)Nc1nc(F)c(CN2C[C@H](Oc3ccc4cnccc4n3)C[C@@H]2C)s1 [Example 120, N-(5-(((2S,4R)-4-((1,6-naphthyridin-2-yl)oxy)-2-methylpyrrolidin-1-yl)methyl)-4-fluorothiazol-2-yl)acetamide] | < 1 |
| CC(=O)Nc1nc(F)c(CN2C[C@H](Oc3nn4ccnc4s3)C[C@@H]2C)s1 [Example 111, N-(4-fluoro-5-(((2S,4R)-4-(imidazo[2,1-b][1,3,4]thiadiazol-2-yloxy)-2-methylpyrrolidin-1-yl)methyl)thiazol-2-yl)acetamide] | < 1 |
| CC(=O)Nc1nc(F)c(CN2C[C@H](Oc3ncnc4ncccc34)C[C@@H]2C)s1 [Example 119, N-(4-fluoro-5-(((2S,4R)-2-methyl-4-(pyrido[2,3-d]pyrimidin-4-yloxy)pyrrolidin-1-yl)methyl)thiazol-2-yl)acetamide] | 1.1 |
| CC(=O)Nc1ncc(CN2C[C@H](Oc3ccc4ccccc4n3)C[C@@H]2C)s1 [Example 8, N-(5-(((2S,4R)-2-methyl-4-(quinolin-2-yloxy)pyrrolidin-1-yl)methyl)thiazol-2-yl)acetamide] | < 1 |
| CC(=O)Nc1nc(F)c(CN2C[C@H](Oc3nccc4nn(C)cc34)C[C@@H]2C)s1 [Example 136, N-(4-fluoro-5-(((2S,4R)-2-methyl-4-((2-methyl-2H-pyrazolo[4,3-c]pyridin-4-yl)oxy)pyrrolidin-1-yl)methyl)thiazol-2-yl)acetamide] | < 1 |
| CC(=O)Nc1ncc(CN2C[C@H](Oc3ccc4nnc(C(F)(F)F)n4n3)C[C@@H]2C)s1 [Example 18, N-(5-(((2S,4R)-2-methyl-4-((3-(trifluoromethyl)-[1,2,4]triazolo[4,3-b]pyridazin-6-yl)oxy)pyrrolidin-1-yl)methyl)thiazol-2-yl)acetamide] | < 1 |
| CC(=O)Nc1nc(F)c(CN2C[C@H](Oc3cnc4ccnn4c3)C[C@@H]2C)s1 [Example 170, N-(4-fluoro-5-(((2S,4R)-2-methyl-4-(pyrazolo[1,5-a]pyrimidin-6-yloxy)pyrrolidin-1-yl)methyl)thiazol-2-yl)acetamide] | < 1 |
| CC(=O)Nc1nc(F)c(CN2C[C@H](Oc3ccn4nccc4n3)C[C@@H]2C)s1 [Example 62, N-(4-fluoro-5-(((2S,4R)-2-methyl-4-(pyrazolo[1,5-a]pyrimidin-5-yloxy)pyrrolidin-1-yl)methyl)thiazol-2-yl)acetamide] | < 1 |
| CC(=O)Nc1nc(F)c(CN2C[C@H](Oc3ccn4ccnc4c3)C[C@@H]2C)s1 [Example 43, N-(4-fluoro-5-(((2S,4R)-4-(imidazo[1,2-a]pyridin-7-yloxy)-2-methylpyrrolidin-1-yl)methyl)thiazol-2-yl)acetamide] | < 1 |
